Measured values from patent US8192962B2, “Processes for detecting toxic substances” (Daikin Industries, Ltd., priority 2001, dated 2012).

Tested on: Mitochondria-located protein genes
Experiment: DNA chip mRNA expression in yeast, mitochondria-located protein genes (Table 2)
Type: cell-based, Saccharomyces cerevisiae S288C
Details: cells incubated two hours with the chemical substance
Summary of the method: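 Ratios compare mRNA levels in stressed and control S. cerevisiae. Each toxicant was applied for two hours to log-phase cultures at 25° C. at a sub-lethal, growth-inhibiting level; fluorescent cDNA (Cy3- or Cy5-dUTP) was hybridized to a genome-wide yeast chip for over 12 h at 65° C.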

## O=[N+]([O-])c1cc[n+]([O-])c2ccccc12 [(5), 4-nitroquinolin-N-oxide]
Yeast gene YJR121W
  The level of expressed mRNA in the presence of chemical substance/The level of expressed mRNA in the absence of chemical substance: 0.8
Yeast gene YKL003C
  The level of expressed mRNA in the presence of chemical substance/The level of expressed mRNA in the absence of chemical substance: 1.0
Yeast gene YKL016C
  The level of expressed mRNA in the presence of chemical substance/The level of expressed mRNA in the absence of chemical substance: 1.5
Yeast gene YKL141W
  The level of expressed mRNA in the presence of chemical substance/The level of expressed mRNA in the absence of chemical substance: 1.5
Yeast gene YKL142W
  The level of expressed mRNA in the presence of chemical substance/The level of expressed mRNA in the absence of chemical substance: 0.7
Yeast gene YKL148C
  The level of expressed mRNA in the presence of chemical substance/The level of expressed mRNA in the absence of chemical substance: 0.8
Yeast gene YKL170W
  The level of expressed mRNA in the presence of chemical substance/The level of expressed mRNA in the absence of chemical substance: 1.3
Yeast gene YKL194C
  The level of expressed mRNA in the presence of chemical substance/The level of expressed mRNA in the absence of chemical substance: 1.8
Yeast gene YKR066C
  The level of expressed mRNA in the presence of chemical substance/The level of expressed mRNA in the absence of chemical substance: 1.0
Yeast gene YLL041C
  The level of expressed mRNA in the presence of chemical substance/The level of expressed mRNA in the absence of chemical substance: 1.6
Yeast gene YLR038C
  The level of expressed mRNA in the presence of chemical substance/The level of expressed mRNA in the absence of chemical substance: 1.8
Yeast gene YLR259C
  The level of expressed mRNA in the presence of chemical substance/The level of expressed mRNA in the absence of chemical substance: 1.1
Yeast gene YLR295C
  The level of expressed mRNA in the presence of chemical substance/The level of expressed mRNA in the absence of chemical substance: 2.2
Yeast gene YLR304C
  The level of expressed mRNA in the presence of chemical substance/The level of expressed mRNA in the absence of chemical substance: 0.6
Yeast gene YLR348C
  The level of expressed mRNA in the presence of chemical substance/The level of expressed mRNA in the absence of chemical substance: 0.9
Yeast gene YLR395C
  The level of expressed mRNA in the presence of chemical substance/The level of expressed mRNA in the absence of chemical substance: 0.7
Yeast gene YML054C
  The level of expressed mRNA in the presence of chemical substance/The level of expressed mRNA in the absence of chemical substance: 1.3
Yeast gene YML120C
  The level of expressed mRNA in the presence of chemical substance/The level of expressed mRNA in the absence of chemical substance: 0.6
Yeast gene YML129C
  The level of expressed mRNA in the presence of chemical substance/The level of expressed mRNA in the absence of chemical substance: 1.7
Yeast gene YMR023C
  The level of expressed mRNA in the presence of chemical substance/The level of expressed mRNA in the absence of chemical substance: 1.7
Yeast gene YMR035W
  The level of expressed mRNA in the presence of chemical substance/The level of expressed mRNA in the absence of chemical substance: 0.8
Yeast gene YMR083W
  The level of expressed mRNA in the presence of chemical substance/The level of expressed mRNA in the absence of chemical substance: 1.5
Yeast gene YMR089C
  The level of expressed mRNA in the presence of chemical substance/The level of expressed mRNA in the absence of chemical substance: 0.8
Yeast gene YMR152W
  The level of expressed mRNA in the presence of chemical substance/The level of expressed mRNA in the absence of chemical substance: 0.8
Yeast gene YMR193W
  The level of expressed mRNA in the presence of chemical substance/The level of expressed mRNA in the absence of chemical substance: 2.2
Yeast gene YMR203W
  The level of expressed mRNA in the presence of chemical substance/The level of expressed mRNA in the absence of chemical substance: 0.6
Yeast gene YMR267W
  The level of expressed mRNA in the presence of chemical substance/The level of expressed mRNA in the absence of chemical substance: 1.0
Yeast gene YNL055C
  The level of expressed mRNA in the presence of chemical substance/The level of expressed mRNA in the absence of chemical substance: 0.9
Yeast gene YNL071W
  The level of expressed mRNA in the presence of chemical substance/The level of expressed mRNA in the absence of chemical substance: 0.6
Yeast gene YNL073W
  The level of expressed mRNA in the presence of chemical substance/The level of expressed mRNA in the absence of chemical substance: 0.6
Yeast gene YNL104C
  The level of expressed mRNA in the presence of chemical substance/The level of expressed mRNA in the absence of chemical substance: 0.8
Yeast gene YNL256W
  The level of expressed mRNA in the presence of chemical substance/The level of expressed mRNA in the absence of chemical substance: 1.0
Yeast gene YOL096C
  The level of expressed mRNA in the presence of chemical substance/The level of expressed mRNA in the absence of chemical substance: 1.2
Yeast gene YOR020C
  The level of expressed mRNA in the presence of chemical substance/The level of expressed mRNA in the absence of chemical substance: 1.5
Yeast gene YOR037W
  The level of expressed mRNA in the presence of chemical substance/The level of expressed mRNA in the absence of chemical substance: 1.5
Yeast gene YOR100C
  The level of expressed mRNA in the presence of chemical substance/The level of expressed mRNA in the absence of chemical substance: 1.0
Yeast gene YOR130C
  The level of expressed mRNA in the presence of chemical substance/The level of expressed mRNA in the absence of chemical substance: 1.8
Yeast gene YOR142W
  The level of expressed mRNA in the presence of chemical substance/The level of expressed mRNA in the absence of chemical substance: 1.4
Yeast gene YOR150W
  The level of expressed mRNA in the presence of chemical substance/The level of expressed mRNA in the absence of chemical substance: 0.8
Yeast gene YOR176W
  The level of expressed mRNA in the presence of chemical substance/The level of expressed mRNA in the absence of chemical substance: 1.0
Yeast gene YOR187W
  The level of expressed mRNA in the presence of chemical substance/The level of expressed mRNA in the absence of chemical substance: 0.6
Yeast gene YOR316C
  The level of expressed mRNA in the presence of chemical substance/The level of expressed mRNA in the absence of chemical substance: 1.0
Yeast gene YPL040C
  The level of expressed mRNA in the presence of chemical substance/The level of expressed mRNA in the absence of chemical substance: 0.8
Yeast gene YPL134C
  The level of expressed mRNA in the presence of chemical substance/The level of expressed mRNA in the absence of chemical substance: 1.4
Yeast gene YPL135W
  The level of expressed mRNA in the presence of chemical substance/The level of expressed mRNA in the absence of chemical substance: 1.6
Yeast gene YPL215W
  The level of expressed mRNA in the presence of chemical substance/The level of expressed mRNA in the absence of chemical substance: 0.8
Yeast gene YPL262W
  The level of expressed mRNA in the presence of chemical substance/The level of expressed mRNA in the absence of chemical substance: 0.6
Yeast gene YPR024W
  The level of expressed mRNA in the presence of chemical substance/The level of expressed mRNA in the absence of chemical substance: 1.3
Yeast gene YPR037C
  The level of expressed mRNA in the presence of chemical substance/The level of expressed mRNA in the absence of chemical substance: 0.8
Yeast gene YPR047W
  The level of expressed mRNA in the presence of chemical substance/The level of expressed mRNA in the absence of chemical substance: 0.9
Yeast gene YPR134W
  The level of expressed mRNA in the presence of chemical substance/The level of expressed mRNA in the absence of chemical substance: 1.5
